A word on the IC50: it is the concentration that inhibits the measured activity by half.

The target in the assay is T1, Human Factor D (Homo sapiens, UniProt P00746).
T1 construct: purified from human serum; purchased Complement Technology, Inc; host or cells: human serum (natural protein, not recombinant)
Description: Human Factor D Assay. It counts as biochemical. As to conditions: Factor D 80 nM, substrate Z-L-Lys-SBzl, read-out: IC50. Here is the method:
Human Factor D (purified from human serum, Complement Technology, Inc.) at 80 nM final concentration is incubated with test compound at various concentrations for 5 minutes at room temperature in 50 mM Tris, 1M NaCl, pH 7.5. A synthetic substrate Z-L-Lys-SBzl and DTNB (Ellman's reagent) are added to final concentrations of 100 μM each. Absorbance at 405 nm (A405) is recorded at 30 second intervals for 30 minutes using a microplate spectrophotometer. IC50 values are calculated by nonlinear regression of complement Factor D reaction rates as a function of test compound concentration.

Like-named read-outs stand apart in the source and are kept apart here.

T1 sequence (P00746 26-253): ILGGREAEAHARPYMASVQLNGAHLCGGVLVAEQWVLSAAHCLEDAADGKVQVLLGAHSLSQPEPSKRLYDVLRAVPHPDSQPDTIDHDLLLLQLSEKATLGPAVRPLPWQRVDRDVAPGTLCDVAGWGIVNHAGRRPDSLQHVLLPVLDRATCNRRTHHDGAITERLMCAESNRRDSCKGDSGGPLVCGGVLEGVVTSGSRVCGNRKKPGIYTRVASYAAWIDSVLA

Regarding `NC(=O)c1nn(CC(=O)N2[C@@H]3C[C@@H]3C[C@H]2C(=O)Nc2cccc(Br)n2)c2ccc(NC(=O)N3CCCC(F)(F)C3)cc12` [Compound 34, 1-(2-((1R,3S,5R)-3-(6-bromopyridin-2-ylcarbamoyl)-2-azabicylco[3.1.0]hexan-2-yl)-2-oxoethyl)-5-(3,3-difluoropiperidine-1-carboxamido)-1H-indazole-3-carboxamide], for the setting “Table 1”, the IC50 is less than 1 µM.

Consider `CC(=O)c1cn(CC(=O)N2C[C@H](F)C[C@H]2C(=O)Nc2cccc(-c3ccccc3Cl)c2F)c2ccc(NC(=O)C3CCC(F)(F)C3)cc12` (stereo partly drawn) [Compound 35, (2S,4R)-1-(2-(3-acetyl-5-(3,3-difluorocyclopentane-carboxamido)-1H-indol-1-yl)acetyl)-N-(2′-chloro-2-fluorobiphenyl-3-yl)-4-fluoropyrrolidine-2-carboxamide], for which the IC50 (Table 1) is less than 1 µM.

`CC(=O)c1cn(CC(=O)N2C[C@H](F)C[C@H]2C(=O)Nc2cccc(-c3ccccc3Cl)c2F)c2ccc(NC(=O)CC(F)(F)F)cc12` [Compound 36, (2S,4R)-1-(2-(3-acetyl-5-(3,3,3-trifluoropropanamido)-1H-indol-1-yl)acetyl)-N-(2′-chloro-2-fluorobiphenyl-3-yl)-4-fluoropyrrolidine-2-carboxamide]: the IC50 (Table 1) is less than 1 µM.

Turning to `CC(=O)c1cn(CC(=O)N2C[C@H](F)C[C@H]2C(=O)NCc2cccc(Cl)c2F)c2cc(NC(=O)OC(C)(C)C)ccc12` [Compound 37, tert-butyl 3-acetyl-1-(2-((2S,4R)-2-(3-chloro-2-fluorobenzylcarbamoyl)-4-fluoropyrrolidin-1-yl)-2-oxoethyl)-1H-indol-6-ylcarbamate], the IC50 (Table 1) is less than 1 µM.

`CC(=O)c1cn(CC(=O)N2C[C@H](F)C[C@H]2C(=O)NCc2cccc(Cl)c2F)c2ccc(C(=O)N3CC=C(B(O)O)CC3)cc12` [Compound 38, 1-(3-acetyl-1-(2-((2S,4R)-2-(3-chloro-2-fluorobenzylcarbamoyl)-4-fluoropyrrolidin-1-yl)-2-oxoethyl)-1H-indole-5-carbonyl)-1,2,3,6-tetrahydropyridin-4-ylboronic acid]: the IC50 (Table 1) is less than 1 µM.

Regarding `CC(=O)c1cn(CC(=O)N2C[C@H](F)C[C@H]2C(=O)NCc2cccc(Cl)c2F)c2ccc(C(=O)N3CC4CCC3C4)cc12` (stereo partly drawn) [Compound 39, (2S,4R)-1-(2-(3-acetyl-5-(2-azabicyclo[2.2.1]heptane-2-carbonyl)-1H-indol-1-yl)acetyl)-N-(3-chloro-2-fluorobenzyl)-4-fluoropyrrolidine-2-carboxamide], the 50% inhibitory concentration (IC50) (Table 1) was less than 1 µM.

As for `CC(=O)c1cn(CC(=O)N2C[C@H](F)C[C@H]2C(=O)NCc2cccc(Cl)c2F)c2ccc(C(=O)N3CCCC(F)(F)C3)cc12` [Compound 40, (2S,4R)-1-(2-(3-acetyl-5-(3,3-difluoropiperidine-1-carbonyl)-1H-indol-1-yl)acetyl)-N-(3-chloro-2-fluorobenzyl)-4-fluoropyrrolidine-2-carboxamide], where the note is “Table 1”, the IC50 was less than 1 µM.

Turning to `CC(=O)c1cn(CC(=O)N2C[C@H](F)C[C@H]2C(=O)NCc2cccc(Cl)c2F)c2ccc(C(=O)NC3CC3)cc12` [Compound 41, 3-acetyl-1-(2-((2S,4R)-2-(3-chloro-2-fluorobenzylcarbamoyl)-4-fluoropyrrolidin-1-yl)-2-oxoethyl)-N-cyclopropyl-1H-indole-5-carboxamide], under “Table 1”, the IC50 is less than 1 µM.

With `CC(=O)c1cn(CC(=O)N2C[C@H](F)C[C@H]2C(=O)NCc2cccc(Cl)c2F)c2cc(C(=O)N3CCC(CN)C3)ccc12` (stereo partly drawn) [Compound 42, (2S,4R)-1-(2-(3-acetyl-6-(3-(aminomethyl)-pyrrolidine-1-carbonyl)-1H-indol-1-yl)acetyl)-N-(3-chloro-2-fluorobenzyl)-4-fluoropyrrolidine-2-carboxamide], the IC50 (Table 1) is less than 1 µM.

On to `CC(=O)c1cn(CC(=O)N2C[C@H](F)C[C@H]2C(=O)NCc2cccc(Cl)c2F)c2cc(C(=O)NS(C)(=O)=O)ccc12` [Compound 43], for which, under “Table 1”, the IC50 is less than 1 µM.

For the molecule `CC(=O)c1cn(CC(=O)N2C[C@H](F)C[C@H]2C(=O)NCc2cccc(Cl)c2F)c2cc(C(=O)N[C@H]3CCN(C(=O)OC(C)(C)C)C3)ccc12` [Compound 44, (S)-tert-butyl 3-(3-acetyl-1-(2-((2S,4R)-2-(3-chloro-2-fluorobenzyl-carbamoyl)-4-fluoropyrrolidin-1-yl)-2-oxoethyl)-1H-indole-6-carboxamido) pyrrolidine-1-carboxylate], the IC50 (Table 1) was less than 1 µM.

In the case of `CC(=O)c1cn(CC(=O)N2C[C@H](F)C[C@H]2C(=O)NCc2cccc(Cl)c2F)c2cc(C(=O)N[C@H]3CCNC3)ccc12` [Compound 45, 3-acetyl-1-(2-((2S,4R)-2-(3-chloro-2-fluorobenzyl-carbamoyl)-4-fluoropyrrolidin-1-yl)-2-oxoethyl)-N-((S)-pyrrolidin-3-yl)-1H-indole-6-carboxamide], the IC50 (Table 1) is less than 1 µM.

`CC(=O)c1cn(CC(=O)N2C[C@H](F)C[C@H]2C(=O)NCc2cccc(Cl)c2F)c2cc(C(=O)N[C@H]3CCN(C(C)=O)C3)ccc12` [Compound 46, 3-acetyl-N-((S)-1-acetylpyrrolidin-3-yl)-1-(2-((2S,4R)-2-(3-chloro-2-fluorobenzylcarbamoyl)-4-fluoropyrrolidin-1-yl)-2-oxoethyl)-1H-indole-6-carboxamide]: the IC50 (Table 1) is less than 1 µM.

Consider `CC(=O)c1cn(CC(=O)N2C[C@H](F)C[C@H]2C(=O)NCc2cccc(Cl)c2F)c2cc(C(=O)NS(=O)(=O)C3CC3)ccc12` [Compound 48, 3-acetyl-1-(2-((2S,4R)-2-(3-chloro-2-fluorobenzylcarbamoyl)-4-fluoropyrrolidin-1-yl)-2-oxoethyl)-N-(cyclopropylsulfonyl)-1H-indole-6-carboxamide], for which the IC50 (Table 1) was less than 1 µM.

Take `CC(=O)c1cn(CC(=O)N2C[C@H](F)C[C@H]2C(=O)NCc2cccc(Cl)c2F)c2cc(C(=O)NCC3CCNC3)ccc12` (stereo partly drawn) [Compound 49, 3-acetyl-1-(2-((2S,4R)-2-(3-chloro-2-fluorobenzylcarbamoyl)-4-fluoropyrrolildin-1-yl)-2-oxoethyl)-N-(pyrrolidin-3-ylmethyl)-1H-indole-6-carboxamide]: the IC50 (Table 1) is less than 1 µM.

In the case of `CC(=O)c1cn(CC(=O)N2C[C@H](F)C[C@H]2C(=O)NCc2cccc(Cl)c2F)c2cc(C(=O)NCC3CCN(C(=O)OC(C)(C)C)C3)ccc12` (stereo partly drawn) [Compound 50, tert-butyl 3-((3-acetyl-1-(2-((2S,4R)-2-(3-chloro-2-fluorobenzylcarbamoyl)-4-fluoropyrrolidin-1-yl)-2-oxoethyl)-1H-indole-6-carboxamido)methyl) pyrrolidine-1-carboxylate], the IC50 (Table 1) was less than 1 µM.

For `COC(=O)C1CCN(C(=O)c2ccc3c(C(C)=O)cn(CC(=O)N4C[C@H](F)C[C@H]4C(=O)NCc4cccc(Cl)c4F)c3c2)C1` (stereo partly drawn) [Compound 51, methyl 1-(3-acetyl-1-(2-((2S,4R)-2-(3-chloro-2-fluorobenzylcarbamoyl)-4-fluoropyrrolidin-1-yl)-2-oxoethyl)-1H-indole-6-carbonyl)pyrrolidine-3-carboxylate], the IC50 (Table 1) is less than 1 µM.

With `CC(=O)c1cn(CC(=O)N2C[C@H](F)C[C@H]2C(=O)NCc2cccc(Cl)c2F)c2cc(C(=O)N3CCC(C(=O)O)C3)ccc12` (stereo partly drawn) [Compound 52, 1-(3-acetyl-1-(2-((2S,4R)-2-(3-chloro-2-fluorobenzylcarbamoyl)-4-fluoropyrrolidin-1-yl)-2-oxoethyl)-1H-indole-6-carbonyl)pyrrolidine-3-carboxylic acid], the IC50 (Table 1) is less than 1 µM.

Take `CC(=O)c1cn(CC(=O)N2C[C@H](F)C[C@H]2C(=O)NCc2cccc(Cl)c2F)c2cc(C(=O)NS(=O)(=O)c3ccccc3)ccc12` [Compound 53, 3-acetyl-1-(2-((2S,4R)-2-(3-chloro-2-fluorobenzylcarbamoyl)-4-fluoropyrrolidin-1-yl)-2-oxoethyl)-N-(phenylsulfonyl)-1H-indole-6-carboxamide]: the IC50 (Table 1) was less than 1 µM.

In the case of `NC(=O)c1nn(CC(=O)N2C[C@H](F)C[C@H]2C(=O)Nc2cccc(-c3ccccc3Cl)c2F)c2cc(C(=O)NS(=O)(=O)C3CC3)ccc12` [Compound 54], for the setting “Table 1”, the IC50 is less than 1 µM.

With `CC(C)(C)C(=O)Nc1nc2c(s1)c(C(N)=O)nn2CC(=O)N1C[C@H](F)C[C@H]1C(=O)Nc1cccc(-c2ccccc2Cl)c1F` [Compound 55, 1-(2-((2S,4R)-2-(2′-chloro-2-fluorobiphenyl-3-ylcarbamoyl)-4-fluoropyrrolidin-1-yl)-2-oxoethyl)-5-pivalamido-1H-pyrazolo[3,4-d]thiazole-3-carboxamide], under “Table 2”, the IC50 is less than 1 µM.

Turning to `CC(C)(C)C(=O)Nc1nc2c(s1)c(C(N)=O)nn2CC(=O)N1C[C@H](F)C[C@H]1C(=O)NCc1cccc(Cl)c1F` [Compound 56, 1-(2-((2S,4R)-2-(3-chloro-2-fluorobenzylcarbamoyl)-4-fluoropyrrolidin-1-yl)-2-oxoethyl)-5-pivalamido-1H-pyrazolo[3,4-d]thiazole-3-carboxamide], where the note is “Table 2”, the IC50 was less than 1 µM.

As to `NC(=O)c1nn(CC(=O)N2C[C@H](F)C[C@H]2C(=O)Nc2cccc(-c3ccccc3Cl)c2F)c2cc(C(=O)NC3CC3)sc12` [Compound 57, 1-(2-((2S,4R)-2-(2′-chloro-2-fluorobiphenyl-3-ylcarbamoyl)-4-fluoropyrrolidin-1-yl)-2-oxoethyl)-N5-cyclopropyl-1H-thieno[3,2-c]pyrazole-3,5-dicarboxamide], the IC50 (Table 2) was less than 1 µM.

For `CNC(=O)c1cc2c(s1)c(C(N)=O)nn2CC(=O)N1C[C@H](F)C[C@H]1C(=O)Nc1cccc(-c2ccccc2Cl)c1F` [Compound 58], the IC50 (Table 2) was less than 1 µM.
